# From US20200316090A1, “TARGETED THERAPEUTICS” (MADRIGAL PHARMACEUTICALS, INC., priority 2012, published 2020)
# What was measured:
# [1] = Tissue distribution of ganetespib in female CD-1 nu/nu mice bearing RERF human NSCLC xenografts; type: in vivo; settings: mouse, tumor, ganetespib 50 mg/kg IV, DRD
# From the text: Tissue Distribution of Ganetespib in Female CD-1 Nu/Nu Mice Bearing RERF Human NSCLC Xenografts
# To confirm the distribution of ganetespib in blood, livers, kidneys, brains, hearts, lungs and tumors after IV administration of ganetespib to female CD-1 nu/nu mice bearing RERF human NSCLC xenografts, and to examine metabolic profiles of ganetespib in plasma, red blood cells, and above tissues.
# Animals: female CD-1 nu/nu mice bearing RERF human NSCLC xenografts (N=3/group)
# Formulation: 10% DMSO, 18% Cremophor RH40, 3.6% dextrose solution (DRD)
# Bleeding time points: 5 min, 6, 24 hr
# Collected tissues: blood (plasma and red blood cells (RBC)), liver, kidneys, brain, heart, lung, tumor
# Protein precipitation: 50 μL of 10 times diluted plasma or RBC+150 μL ACN (10 mM NH4OAc), vortexed and centrifuged at 10000 rpm for 8 min; 150 μL supernatant+150 μL water (10 mM NH4OAc)
# Protein precipitation: 100 μL homogenized tissue (1:3 tissue: PBS buffer)+100 μL ACN (10 mM NH4OAc), vortexed and centrifuged at 10000 rpm for 8 min
# [2] = Mouse plasma stability (Examples 16-18); type: in vitro ADME; settings: 37° C.
# Description: This solution was used to precipitate all plasma samples in the study. 200 μL was pipetted into a 96 deepwell plate over dry ice. 10 μL of 1 mM stock in DMSO was added to a 1.5 mL microfuge tube, then 990 μL of plasma. Samples were mixed by vortex, then 50 μL of each sample was added in triplicate to a 96-well plate containing internal standard solution. This was designated the 0 hour time point sample. 250 μL of the remaining plasma sample was added to each of four 96 deepwell plates—one per time point. Samples were incubated at 37° C. with gentle shaking for 0.25, 0.5, and 1 hour. After each time point, one plate of each sample was removed from the shaker and placed on wet ice for approximately 2 minutes. 50 μL plasma aliquots (in triplicate) were added to the deepwell plate containing internal standard solution. After the last time point was extracted, the 96 deepwell plate was vortexed, then centrifuged at 2-8° C. 150 μL of supernatant was collected and 25 μL of water was added. Samples were mixed and analyzed by LC-MS/MS.
# The stability of seven SDC-TRAP types in mouse plasma was measured as follows. 990 μL mouse plasma aliquots from a common stock were spiked with 10 μL of 1 mM stock of one of seven SDC-TRAP samples identified in the table below. Each sample was mixed and divided into 250 μL aliquots, each representing time points 0, 15 minutes, 30 minutes or 1 hour. At the prescribed time point, 3×50 μL samples were each mixed with 200 μL of methanol containing internal standard and held on dry ice until all time point samples were extracted. The samples collectively were vortex mixed for 1.5 minutes at 1500 rpm, then centrifuged at 4400 rpm for 10 minutes at 8° C.
# [3] = Tissue distribution of SDC-TRAP and degradation products in tumor-bearing mice (plasma, tumor, heart); type: in vivo, Female SCID Mouse (H1975); settings: mouse, in vivo
# Description: A 150 ng/mL solution of SDC-TRAP-0002 in methanol was prepared using an internal spiking solution (500 μg/mL SDC-TRAP-0002 in DMSO). Using the 10 mM stock solutions of the SDC-TRAP molecule and its Hsp90i binding moiety and effector moiety in DMSO, spiking solutions were prepared at 0.025, 0.05, 0.1, 0.5, 1, 5, 10, 50, 100, 250, and 500 μM in DMSO. 5 μL of each spiking solution was added to a 96-deep well plate.
# Quality control standards were prepared from 5 μL of 0.1, 1, and 10 μM calibration standard spiking solution added in triplicate into 96-deep well plate and adding 50 μL of matrix (plasma or homogenized tumor).
# To prepare test samples, test plasma was diluted as needed using blank plasma. Tumor samples were pulverized in liquid nitrogen, weighed, and homogenized in PBS at 5× volume to sample weight. 50 μL of unknown plasma or homogenized tumor sample was mixed with 5 μL of DMSO. The samples were extracted by precipitating calibration standards, QC standards, and unknown samples with 200 μL of internal standard solution. The samples were mixed by vortex at room temperature for approximately 1.5 minutes, then centrifuge at 2-8° C. 150 μL of supernatant was collected and 25 μL of water added. Samples were mixed and analyzed by LC-MS/MS.
# Samples of plasma, heart and tumor were excised from a euthanized mouse, homogenized in PBS at 5 times tissue weight and diluted in 5 μL DMSO/50 μL sample. Prior to analysis, 55 μL samples and calibration standards were precipitated in 200 μL methanol in 96-well plates. Samples were mixed on a vortex mixer for 1.5 minutes at 1500 rpm at room temperature, then centrifuged at 4400 rpm for 10 minutes at 8° C. 150 μL of each supernatant was transferred to a well of a new 96-well plate, and 25 μL of water was added and mixed with the sample. […] For the analysis of samples from female SCID mice, a gradient of solvent A (water/0.1% formic acid) and B (acetonitrile/0.1% formic acid) was used as in Table A below.
# in vitro = settings: PAMPA, Permeability (cm/s)
# Description: (§1) In order to test the ability SDC-TRAP molecules of the invention to enter cells, an artificial membrane permeability assay (“PAMPA”) was used. […] LC/MS was used in conjunction with PAMPA assays to determine the ability of the SDC-TRAP molecules of the invention to permeate cells.
# (§2) Pre-coated PAMPA plates were warmed to room temperature for at least 30 minutes prior to adding assay components.
# (§3) Stock solutions were prepared with the SDC-TRAP molecules to be tested. In order to make a working solution, either 50 μL of 100 μM Stock in DMSO+950 μL of PBS or 50 μL of 200 stock was added to 96 deep well plate, resulting in a 5 μM final concentration or a 10 μM final concentration, respectively. […] 200 μL of PBS was added into the corresponding wells of an acceptor PAMPA plates.
# (§4) The acceptor plate was lowered onto the donor plate and allowed to incubate for five hours. After five hours, a 50 μL aliquot was removed from each well of each plate and added into a new 96 deep-well plate.
# (§5) 100 μL of methanol containing an internal standard was added to each aliquot and analyzed by LC/MS. The internal standard was 150 ng/ml SDC-TRAP-0002.
# (§6) In order to calculate the permeability for each SDC-TRAP molecule and the control molecules, the following formula was used:
# Permeability (in Unit of Cm/s):
# (§7) [formula] • C0=initial compound concentration in donor well (mM) • CD (t)=compound concentration in donor well at time t. (mM) • CA (t)=compound concentration in acceptor well at time t. (mM) • VD=donor well volume=0.3 mL • VA=acceptor well volume=0.2 mL • A=filter area=0.3 cm^2 • t=incubation time=18000 s (5 h)
# (§8) For the data presented in the table below, peak area was used in place of concentration in the formula above.
# [4] = Artificial membrane permeability assay (PAMPA); settings: for Papp at 5 h: Permeability (10^−6 cm/s)
# Description: as §1, §2, §3, §4, §5, §6
# Permeability (in Unit of Cm/s):
# as §7, §8
# [5] = tested on: MCF-7 breast cancer cells; assay: Mouse xenograft efficacy in an MCF-7 breast cancer model; type: in vivo, CD-1 nude mice
# Description: MCF-7 breast cancer cells were purchased from ATCC. […] Fetal bovine serum was then added to the medium. The final concentration of fetal bovine serum was 10%. Cells were cultured at 37° C. and 5% CO2.
# Mice that were not put on treatment were euthanized. Animals were sourced through CRL (Wilmington, Mass.).
# HER2 = HER2 degradation in BT-474 cells (Example 3, Method 1 Western blot / Method 2 LI-COR imaging); type: cell-based, human; settings: 0.5 μM, overnight
# From the text: This example illustrates how a HER2 degradation assay may be used as a test to determine and select Hsp90-targeting moieties suitable for use in SDC-TRAPs of the invention, and further illustrates the ability of SDC-TRAPs to target cells preferentially expressing Hsp90. Such a test may further be used to determine the Hsp90 binding ability of SDC-TRAPs of the invention, as well as through competitive binding assays and cell-based Hsp90 client protein degradation assays known in the art.
# After treatment, each cytoplasmic sample is prepared from 1×10^6 cells by incubation of cell lysis buffer (#9803, Cell Signaling Technology) on ice for 10 minutes. The resulting supernatant used as the cytosol fractions is dissolved with sample buffer for SDS-PAGE and run on a SDS-PAGE gel, blotted onto a nitrocellulose membrane by using semi-dry transfer. […]
# Cells are then fixed in 4% phosphate-buffered paraformaldehyde for 30 minutes at room temperature and then permeabilized by washing five times with 0.1% Triton X-100 in PBS for 5 minutes at room temperature on a shaker. […] The raw data is normalized to DRAQS and the HER2 EC50 is calculated using XLfit™ […]
# [6] = 5 h incubation, peak area used in place of concentration, first table
smiles,measurement,setting,value
CC(C)c1cc(-c2n[nH]c(=O)n2-c2ccc3c(ccn3C)c2)c(O)cc1O [ganetespib],concentration at 5 min,[1],2350 nM
"CCc1c2c(nc3ccc(O)cc13)-c1cc3c(c(=O)n1C2)COC(=O)[C@]3(O)CC [SN-38, reference compound]",Mouse (5 μM) % Remaining 1 h (37° C.) *,"[2]; 5 μM, 1 h, sum of both peaks of parent chromatogram",87%
same,Mouse (5 μM) % Remaining 19 h (37° C.),"[2]; 5 μM, 19 h",52%
same,Mouse (10 μM) % Remaining 1 h (37° C.) *,"[2]; 10 μM, 1 h, sum of both peaks of parent chromatogram",64%
same,Kp at 6 h,"[3]; female, SCID",5.8
same,Kp at 12 h,"[3]; female, SCID",105
same,Kp at 24 h,"[3]; female, SCID",105
same,Kp at […],"[3]; female, SCID",0.13
same,concentration at 6 h,"[3]; female, SCID",77.3 nM
same,concentration at 12 h,"[3]; female, SCID",9.55 nM
same,concentration at 24 h,"[3]; female, SCID",9.55 nM
same,Tumor Conc.,"[3]; female, SCID, 24 h",1.07 nmol/g of tissue
same,Tumor Conc.,"[3]; female, SCID, 48 h",0.046 nmol/g of tissue
same,Papp,in vitro; [6],0.643 ×10⁻⁶ cm/s
same,Papp,"in vitro; same protocol, second table",1.87 ×10⁻⁶ cm/s
same,Mass Retention (%),"[4]; 5 h incubation, first table",38.2%
same,Papp at 5 h,[4]; [6],0.643 ×10⁻⁶ cm/s
same,Papp at 5 h,"[4]; same protocol, second table",1.87 ×10⁻⁶ cm/s
same,Mass Retention (%),"[4]; same protocol, second table",46.6%
"CCc1c2c(nc3ccc(OC(=O)N4CCC(CCn5ccc6cc(-n7c(O)nnc7-c7cc(C(C)C)c(O)cc7O)ccc65)CC4)cc13)-c1cc3c(c(=O)n1C2)COC(=O)[C@]3(O)CC [SDC-TRAP-0063, 4,11-diethyl-4-hydroxy-3,14-dioxo-3,4,12,14-tetrahydro-1H-pyrano[3′,4′:6,7]indolizino[1,2-b]quinolin-9-yl 4-(2-(5-(3-(2,4-dihydroxy-5-isopropylphenyl)-5-hydroxy-4H-1,2,4-triazol-4-yl)-1H-indol-1-yl)ethyl)piperidine-1-carboxylate]",Kp at 1 h,"[3]; female, SCID",0.17
same,Kp at 6 h,"[3]; female, SCID",2.25
same,Kp at 24 h,"[3]; female, SCID",20.4
same,Kp at 48 h,"[3]; female, SCID",6.85
same,Kp at […],"[3]; female, SCID",0.01
same,concentration at 1 h,"[3]; female, SCID",52.9 µM
same,concentration at 6 h,"[3]; female, SCID",4000 nM
same,concentration at 24 h,"[3]; female, SCID",359 nM
same,concentration at 48 h,"[3]; female, SCID",1110 nM
same,Tumor Conc.,"[3]; female, SCID, 1 h",9.12 nmol/g of tissue
same,Tumor Conc.,"[3]; female, SCID, 6 h",8.98 nmol/g of tissue
same,Tumor Conc.,"[3]; female, SCID, 24 h",7.32 nmol/g of tissue
same,Tumor Conc.,"[3]; female, SCID, 48 h",7.60 nmol/g of tissue
same,"selective targeting of tumor (tissue distribution in plasma, tumor and heart)",[3],selectively targets and accumulates in tumor cells
same,suppression of increase in tumor volume,[5]; 150 mg/kg/1×wk versus 100 mg/kg/1×wk (FIG. 8),appears to prolong the suppression of increase in tumor volume compared to a lower dose (100 mg/kg/1×wk)
same,tumor growth suppression versus comparators,[5]; either dose (150 or 100 mg/kg/1×wk) (FIG. 8),"greater tumor growth suppression than effector moiety irinotecan alone, or unconjugated binding moiety ganetespib and effector moiety irinotecan administered together"
same,Mass Retention (%),"[4]; same protocol, second table",18.7%
C=CCNC1=C2C[C@@H](C)C[C@H](OC)[C@H](O)[C@@H](C)/C=C(\C)[C@H](OC(N)=O)[C@@H](OC)/C=C\C=C(/C)C(=O)NC(=CC1=O)C2=O [17-AAG],degradation of HER2,HER2,partial degradation of HER2
